Source: US9663508B2, “Biaryl acyl-sulfonamide compounds as sodium channel inhibitors” (AMGEN INC., priority 2013, dated 2017)
Like-named read-outs stand apart in the source and are kept apart here.

Key:
human Nav 1.5 = human Nav 1.5 (Homo sapiens (Human), UniProt Q14524); test: Nav 1.5 IonWorks Quattro (IWQ) in vitro assay; assay type: cell-based
Procedure: Nav 1.7 or Nav 1.5 Ion Works Quattro (IWQ) In Vitro Assay
HEK 293 Cells stably transfected with either human Nay 1.7 or human Nay 1.5 were recorded in population patch-clamp mode with the IonWorks® Quattro automated electrophysiology system in accordance with the manufacturer's specifications (Molecular Devices, LLC, Sunnyvale, Calif.). Sodium channel currents were measured in response to a train of depolarizations that induced successively greater inactivation.
Cells were held at −110 mV for three seconds (Nav 1.7) or half a second (Nav 1.5) from a holding voltage of −15 mV, then put through a series of 26 pulses of 150 msec duration to −20 mV at a frequency of 5 Hz. Cells were then left unclamped for a period of 3 to 8 minutes while a single concentration of test compound was added. Cells were then reclamped and put through the same voltage protocol. Current at the end of the 26th pulse to −20 mV was subtracted from the peak current evoked by the 26th pulse to −20 mV to correct for leak current. Percent block was calculated for each concentration in duplicate, and IC50 curves were fitted to percent block as a function of concentration.

human Nav1.7 = human Nav1.7 (Homo sapiens (Human), UniProt Q15858); test: Nav 1.7 in vitro PatchXpress (PX) assay; assay type: cell-based
[1] = in-vitro Nav 1.5 IWQ data, read-out: NAV 1.5 IWQ (IC50)

Sequence of human Nav 1.5 (Q14524 whole entry): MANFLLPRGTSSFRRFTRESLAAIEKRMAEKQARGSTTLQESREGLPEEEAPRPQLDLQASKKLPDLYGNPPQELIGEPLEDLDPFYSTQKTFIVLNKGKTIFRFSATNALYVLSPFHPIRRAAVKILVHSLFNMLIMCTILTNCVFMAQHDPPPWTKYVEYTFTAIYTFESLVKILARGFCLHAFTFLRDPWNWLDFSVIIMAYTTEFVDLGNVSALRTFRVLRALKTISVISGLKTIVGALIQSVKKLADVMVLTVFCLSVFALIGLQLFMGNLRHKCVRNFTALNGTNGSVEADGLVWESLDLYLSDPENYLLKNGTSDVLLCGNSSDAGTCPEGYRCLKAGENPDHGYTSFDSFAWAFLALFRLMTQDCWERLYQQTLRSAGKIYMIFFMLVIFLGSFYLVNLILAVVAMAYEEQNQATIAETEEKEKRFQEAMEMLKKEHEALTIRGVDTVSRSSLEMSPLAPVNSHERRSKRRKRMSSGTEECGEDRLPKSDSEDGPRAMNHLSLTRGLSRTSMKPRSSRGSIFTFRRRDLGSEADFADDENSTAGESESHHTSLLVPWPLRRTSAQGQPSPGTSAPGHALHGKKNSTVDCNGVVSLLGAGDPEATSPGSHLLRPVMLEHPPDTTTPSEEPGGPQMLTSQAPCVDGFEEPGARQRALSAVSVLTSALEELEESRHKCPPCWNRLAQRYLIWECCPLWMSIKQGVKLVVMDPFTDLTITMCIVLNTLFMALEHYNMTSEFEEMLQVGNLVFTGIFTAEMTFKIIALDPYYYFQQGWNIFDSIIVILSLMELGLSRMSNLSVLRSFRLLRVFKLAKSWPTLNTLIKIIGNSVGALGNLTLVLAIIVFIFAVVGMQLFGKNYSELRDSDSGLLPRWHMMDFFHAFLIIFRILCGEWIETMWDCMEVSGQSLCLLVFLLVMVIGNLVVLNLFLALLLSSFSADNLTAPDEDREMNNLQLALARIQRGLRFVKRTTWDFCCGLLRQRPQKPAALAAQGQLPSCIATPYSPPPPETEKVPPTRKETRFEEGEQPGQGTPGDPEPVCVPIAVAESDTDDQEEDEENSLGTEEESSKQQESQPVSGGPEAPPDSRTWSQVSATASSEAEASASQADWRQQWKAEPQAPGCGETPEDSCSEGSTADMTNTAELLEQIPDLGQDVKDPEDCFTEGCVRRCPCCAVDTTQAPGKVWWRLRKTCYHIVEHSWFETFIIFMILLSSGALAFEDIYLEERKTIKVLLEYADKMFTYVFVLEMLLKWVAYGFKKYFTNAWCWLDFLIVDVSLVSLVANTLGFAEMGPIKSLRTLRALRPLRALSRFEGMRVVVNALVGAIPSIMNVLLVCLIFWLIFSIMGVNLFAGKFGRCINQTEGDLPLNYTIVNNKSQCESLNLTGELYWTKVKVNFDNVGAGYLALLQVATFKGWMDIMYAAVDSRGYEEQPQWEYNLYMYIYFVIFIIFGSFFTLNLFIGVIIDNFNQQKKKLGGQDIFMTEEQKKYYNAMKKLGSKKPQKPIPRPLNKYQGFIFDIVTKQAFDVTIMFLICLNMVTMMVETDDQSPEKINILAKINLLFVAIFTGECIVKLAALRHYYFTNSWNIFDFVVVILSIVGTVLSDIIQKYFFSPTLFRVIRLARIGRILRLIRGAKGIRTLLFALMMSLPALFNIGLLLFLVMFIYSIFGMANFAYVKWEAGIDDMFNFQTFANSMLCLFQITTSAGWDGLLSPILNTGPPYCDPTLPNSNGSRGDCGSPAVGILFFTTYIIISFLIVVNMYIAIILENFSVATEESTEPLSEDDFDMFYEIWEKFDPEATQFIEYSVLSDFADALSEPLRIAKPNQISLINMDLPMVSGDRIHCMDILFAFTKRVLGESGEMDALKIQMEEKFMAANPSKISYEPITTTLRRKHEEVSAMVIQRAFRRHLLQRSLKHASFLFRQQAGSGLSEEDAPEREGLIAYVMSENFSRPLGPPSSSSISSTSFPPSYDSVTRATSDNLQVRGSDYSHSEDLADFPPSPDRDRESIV
Sequence of human Nav1.7 (Q15858 whole entry): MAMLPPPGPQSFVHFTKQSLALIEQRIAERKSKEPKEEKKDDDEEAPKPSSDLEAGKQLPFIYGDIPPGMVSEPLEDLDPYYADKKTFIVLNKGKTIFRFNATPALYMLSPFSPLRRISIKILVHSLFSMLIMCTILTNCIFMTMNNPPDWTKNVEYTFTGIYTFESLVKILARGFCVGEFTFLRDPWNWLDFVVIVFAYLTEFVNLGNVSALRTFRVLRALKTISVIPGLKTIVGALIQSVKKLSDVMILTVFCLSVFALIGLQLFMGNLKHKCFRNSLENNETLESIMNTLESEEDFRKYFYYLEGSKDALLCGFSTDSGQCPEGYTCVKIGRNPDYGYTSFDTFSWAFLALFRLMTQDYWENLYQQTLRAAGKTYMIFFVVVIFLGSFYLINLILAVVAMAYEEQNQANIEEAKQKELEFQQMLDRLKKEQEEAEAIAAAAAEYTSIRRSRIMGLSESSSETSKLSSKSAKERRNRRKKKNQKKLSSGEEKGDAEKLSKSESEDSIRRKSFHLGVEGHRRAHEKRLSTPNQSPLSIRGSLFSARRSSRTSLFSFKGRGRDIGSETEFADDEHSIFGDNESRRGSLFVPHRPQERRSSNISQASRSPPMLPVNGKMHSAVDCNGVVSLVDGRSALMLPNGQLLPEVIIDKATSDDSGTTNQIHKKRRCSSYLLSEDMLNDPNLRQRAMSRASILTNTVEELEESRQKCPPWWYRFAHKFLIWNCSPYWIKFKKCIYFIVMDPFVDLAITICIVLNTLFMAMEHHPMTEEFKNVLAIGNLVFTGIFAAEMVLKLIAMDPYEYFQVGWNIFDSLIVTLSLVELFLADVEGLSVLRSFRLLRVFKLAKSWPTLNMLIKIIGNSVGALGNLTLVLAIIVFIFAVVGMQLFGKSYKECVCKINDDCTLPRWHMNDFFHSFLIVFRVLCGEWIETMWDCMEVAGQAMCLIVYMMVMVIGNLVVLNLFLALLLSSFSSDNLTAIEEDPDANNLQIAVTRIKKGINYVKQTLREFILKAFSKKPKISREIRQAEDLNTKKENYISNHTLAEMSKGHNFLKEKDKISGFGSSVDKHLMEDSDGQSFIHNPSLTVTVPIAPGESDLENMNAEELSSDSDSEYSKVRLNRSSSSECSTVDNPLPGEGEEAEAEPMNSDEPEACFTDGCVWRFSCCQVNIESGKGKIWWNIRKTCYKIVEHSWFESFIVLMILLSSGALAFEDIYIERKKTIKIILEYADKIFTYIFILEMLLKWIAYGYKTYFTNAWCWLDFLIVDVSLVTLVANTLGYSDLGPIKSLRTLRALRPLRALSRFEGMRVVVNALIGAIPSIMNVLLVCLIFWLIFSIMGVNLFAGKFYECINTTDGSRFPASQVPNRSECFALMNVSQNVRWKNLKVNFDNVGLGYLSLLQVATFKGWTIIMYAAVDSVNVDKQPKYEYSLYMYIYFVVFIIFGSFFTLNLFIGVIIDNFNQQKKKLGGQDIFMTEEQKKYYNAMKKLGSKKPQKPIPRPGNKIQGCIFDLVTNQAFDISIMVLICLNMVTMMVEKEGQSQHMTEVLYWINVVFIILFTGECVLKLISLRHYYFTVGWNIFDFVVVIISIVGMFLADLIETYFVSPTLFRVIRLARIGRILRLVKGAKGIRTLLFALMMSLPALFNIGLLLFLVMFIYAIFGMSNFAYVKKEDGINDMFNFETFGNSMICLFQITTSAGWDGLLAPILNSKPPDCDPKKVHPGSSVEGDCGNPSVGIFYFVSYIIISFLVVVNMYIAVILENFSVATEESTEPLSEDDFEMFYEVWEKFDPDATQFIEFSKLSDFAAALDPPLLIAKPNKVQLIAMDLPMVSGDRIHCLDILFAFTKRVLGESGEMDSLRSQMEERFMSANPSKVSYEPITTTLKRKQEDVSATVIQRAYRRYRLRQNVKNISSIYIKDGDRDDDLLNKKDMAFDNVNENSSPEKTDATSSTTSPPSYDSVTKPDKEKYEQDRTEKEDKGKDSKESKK

Compound	IC50 (human Nav 1.5; read-out: NAV 1.5 IWQ IC50) [nM]	IC50 (human Nav1.7) [nM]	IC50 (human Nav 1.5; [1]) [nM]	IC50 (human Nav1.7; in-vitro Nav 1.7 PX data) [nM]
Cc1cc(C(=O)NS(C)(=O)=O)c(F)cc1-c1cnc(O[C@H](C)c2c(F)cc(F)cc2F)c(Cl)c1 [Example 661, 4-(5-chloro-6-((1R)-1-(2,4,6-trifluorophenyl)ethoxy)-3-pyridinyl)-2-fluoro-5-methyl-N-(methylsulfonyl)benzamide, 4-(5-chloro-6-((1S)-1-(2,4,6-trifluorophenyl)ethoxy)-3-pyridinyl)-2-fluoro-5-methyl-N-(methylsulfonyl)benzamide]	> 10000	76.9		
Cc1cc(C(=O)NS(=O)(=O)C2CC2)c(F)cc1-c1cnc(Oc2c(C)cc(Cl)cc2Cl)c(Cl)c1 [Example 801, 4-(5-chloro-6-(2,4-dichloro-6-methylphenoxy)-3-pyridinyl)-N-(cyclopropylsulfonyl)-2-fluoro-5-methylbenzamide]			485	56.2
Cc1cc(C(=O)NS(C)(=O)=O)c(F)cc1-c1cnc(Oc2ccc(C)c(F)c2F)c(Cl)c1 [Example 643, 4-(5-chloro-6-(2,3-difluoro-4-methylphenoxy)-3-pyridinyl)-2-fluoro-5-methyl-N-(methylsulfonyl)benzamide]	5440	79.2		
COc1cc(C(=O)NS(C)(=O)=O)c(F)cc1-c1cnc(Oc2cc(Cl)cc(Cl)c2)c(Cl)c1 [Example 695, 4-(5-chloro-6-(3,5-dichlorophenoxy)-3-pyridinyl)-2-fluoro-5-methoxy-N-(methylsulfonyl)benzamide]	> 3000	52.4		
CCCS(=O)(=O)NC(=O)c1cc(C)c(-c2cnc(OC3CCC3)c(Cl)c2)cc1F [Example 796, 4-(5-chloro-6-(cyclobutyloxy)-3-pyridinyl)-2-fluoro-5-methyl-N-(propylsulfonyl)benzamide]			9310	110
Cc1cc(C(=O)NS(C)(=O)=O)c(F)cc1-c1cnc(Oc2cccc(Cl)c2F)c(Cl)c1 [Example 619, 4-(5-chloro-6-(3-chloro-2-fluorophenoxy)-3-pyridinyl)-2-fluoro-5-methyl-N-(methylsulfonyl)benzamide]	> 3000	93.7		
Cc1cc(C(=O)NS(C)(=O)=O)c(F)cc1-c1cnc(Oc2c(C)cccc2C(C)(C)C)c(Cl)c1 [Example 633, 4-(6-(2-tert-butyl-6-methylphenoxy)-5-chloro-3-pyridinyl)-2-fluoro-5-methyl-N-(methylsulfonyl)benzamide]	> 3000	83.3		
CS(=O)(=O)NC(=O)c1cc(Cl)c(-c2cnc(Oc3cc(F)ccc3Cl)c(Cl)c2)cc1F [Example 595, 5-chloro-4-(5-chloro-6-(2-chloro-5-fluorophenoxy)-3-pyridinyl)-2-fluoro-N-(methylsulfonyl)benzamide]	> 3000	81.4		
Cc1cc(C(=O)NS(C)(=O)=O)c(F)cc1-c1cnc(O[C@H](C)c2nc3cc(Cl)ccc3s2)c(Cl)c1 [Example 653, 4-(5-chloro-6-((1R)-1-(5-chloro-1,3-benzothiazol-2-yl)ethoxy)-3-pyridinyl)-2-fluoro-5-methyl-N-(methylsulfonyl)benzamide, 4-(5-chloro-6-((1S)-1-(5-chloro-1,3-benzothiazol-2-yl)ethoxy)-3-pyridinyl)-2-fluoro-5-methyl-N-(methylsulfonyl)benzamide]	> 3000	83.6		
Cc1cc(C(=O)NS(C)(=O)=O)c(F)cc1-c1cnc(Oc2ccc(Cl)cc2Cl)c(Cl)c1 [Example 665, 4-(5-chloro-6-(2,4-dichlorophenoxy)-3-pyridinyl)-2-fluoro-5-methyl-N-(methylsulfonyl)benzamide]	4680	35.7		
Cc1cc(Cl)c(Oc2ncc(-c3cc(F)c(C(=O)NS(C)(=O)=O)cc3C)cc2Cl)cc1C [Example 632, 4-(5-chloro-6-(2-chloro-4,5-dimethylphenoxy)-3-pyridinyl)-2-fluoro-5-methyl-N-(methylsulfonyl)benzamide]	> 3000	81.5		
Cc1cc(C(=O)NS(C)(=O)=O)c(F)cc1-c1cnc(O[C@H](C)CCc2ccccc2)c(Cl)c1 [Example 638, 4-(5-chloro-6-(((1R)-1-methyl-3-phenylpropyl)oxy)-3-pyridinyl)-2-fluoro-5-methyl-N-(methylsulfonyl)benzamide, 4-(5-chloro-6-(((1S)-1-methyl-3-phenylpropyl)oxy)-3-pyridinyl)-2-fluoro-5-methyl-N-(methylsulfonyl)benzamide]	> 3000	80		
Cc1cc(C(=O)NS(C)(=O)=O)c(F)cc1-c1cnc(OCc2nc3ccccc3s2)c(Cl)c1 [Example 636, 4-(6-(1,3-benzothiazol-2-ylmethoxy)-5-chloro-3-pyridinyl)-2-fluoro-5-methyl-N-(methylsulfonyl)benzamide]	> 3000	55.7		
CS(=O)(=O)NC(=O)c1cc(Cl)c(-c2cnc(Oc3cc(F)cc(F)c3Cl)c(Cl)c2)cc1F [Example 599, 5-chloro-4-(5-chloro-6-(2-chloro-3,5-difluorophenoxy)-3-pyridinyl)-2-fluoro-N-(methylsulfonyl)benzamide]	> 3000	62.7		
Cc1cc(C(=O)NS(C)(=O)=O)c(F)cc1-c1cnc(Oc2cc(C(F)(F)F)ccc2Cl)c(Cl)c1 [Example 642, 4-(5-chloro-6-(2-chloro-5-(trifluoromethyl)phenoxy)-3-pyridinyl)-2-fluoro-5-methyl-N-(methylsulfonyl)benzamide]	> 3000	70.5		
CC[C@H](Cc1ccccc1)Oc1ncc(-c2cc(F)c(C(=O)NS(C)(=O)=O)cc2Cl)cc1Cl [Example 593, 4-(6-(((1R)-1-benzylpropyl)oxy)-5-chloro-3-pyridinyl)-5-chloro-2-fluoro-N-(methylsulfonyl)benzamide, 4-(6-(((1S)-1-benzylpropyl)oxy)-5-chloro-3-pyridinyl)-5-chloro-2-fluoro-N-(methylsulfonyl)benzamide]	> 3000	97.4		
Cc1cc(C(=O)NS(C)(=O)=O)c(F)cc1-c1cnc(O[C@H]2C[C@H]3CC[C@@H]2C3)c(Cl)c1 [Example 635, 4-(6-((1R,2S,4S)-bicyclo[2.2.1]hept-2-yloxy)-5-chloro-3-pyridinyl)-2-fluoro-5-methyl-N-(methylsulfonyl)benzamide]	> 3000	80.9		
CCS(=O)(=O)NC(=O)c1cc(C)c(-c2cnc(Oc3c(C)cc(Cl)cc3Cl)c(Cl)c2)cc1F [Example 800, 4-(5-chloro-6-(2,4-dichloro-6-methylphenoxy)-3-pyridinyl)-N-(ethylsulfonyl)-2-fluoro-5-methylbenzamide]			1250	96
Cc1cc(C(=O)NS(C)(=O)=O)c(F)cc1-c1cnc(O[C@H](C)c2ccc(F)cc2Cl)c(Cl)c1 [Example 652, 4-(5-chloro-6-((1R)-1-(2-chloro-4-fluorophenyl)ethoxy)-3-pyridinyl)-2-fluoro-5-methyl-N-(methylsulfonyl)benzamide, 4-(5-chloro-6-((1S)-1-(2-chloro-4-fluorophenyl)ethoxy)-3-pyridinyl)-2-fluoro-5-methyl-N-(methylsulfonyl)benzamide]	> 3000	66.4		
Cc1ccc(Oc2ncc(-c3cc(F)c(C(=O)NS(C)(=O)=O)cc3Cl)cc2Cl)cc1F [Example 591, 5-chloro-4-(5-chloro-6-(3-fluoro-4-methylphenoxy)-3-pyridinyl)-2-fluoro-N-(methylsulfonyl)benzamide]	> 3000	85.6		
Cc1cc(C(=O)NS(C)(=O)=O)c(F)cc1-c1cnc(Oc2cc(Cl)ccc2F)c(Cl)c1 [Example 617, 4-(5-chloro-6-(5-chloro-2-fluorophenoxy)-3-pyridinyl)-2-fluoro-5-methyl-N-(methylsulfonyl)benzamide]	> 3000	93.3		
Cc1cc(C(=O)NS(C)(=O)=O)c(F)cc1-c1cnc(Oc2c(C)cc(Cl)cc2Cl)c(Cl)c1 [Example 628, 4-(5-chloro-6-(2,4-dichloro-6-methylphenoxy)-3-pyridinyl)-2-fluoro-5-methyl-N-(methylsulfonyl)benzamide]	2190	56		
Cc1cc(C(=O)NS(C)(=O)=O)c(F)cc1-c1cnc(Oc2c(Cl)ccc(C)c2F)c(Cl)c1 [Example 670, 4-(5-chloro-6-(6-chloro-2-fluoro-3-methylphenoxy)-3-pyridinyl)-2-fluoro-5-methyl-N-(methylsulfonyl)benzamide]	> 10000	83.6		
COc1cc(C(=O)NS(C)(=O)=O)ccc1-c1cc(Cl)nc(Oc2cc(Cl)cc(Cl)c2)c1 [Example 803, 4-(2-chloro-6-(3,5-dichlorophenoxy)-4-pyridinyl)-3-methoxy-N-(methylsulfonyl)benzamide]			> 3000	91.6
Cc1ccc(C(C)(C)C)c(Oc2ncc(-c3cc(F)c(C(=O)NS(C)(=O)=O)cc3C)cc2Cl)c1 [Example 624, 4-(6-(2-tert-butyl-5-methylphenoxy)-5-chloro-3-pyridinyl)-2-fluoro-5-methyl-N-(methylsulfonyl)benzamide]	> 3000	82.7		
Cc1ccc(Cl)cc1Oc1ncc(-c2cc(F)c(C(=O)NS(C)(=O)=O)cc2Cl)cc1Cl [Example 590, 5-chloro-4-(5-chloro-6-(5-chloro-2-methylphenoxy)-3-pyridinyl)-2-fluoro-N-(methylsulfonyl)benzamide]	> 3000	68.1		
COc1cc(C(=O)NS(C)(=O)=O)c(F)cc1-c1cnc(Oc2cc(Cl)ccc2C)c(Cl)c1 [Example 699, 4-(5-chloro-6-(5-chloro-2-methylphenoxy)-3-pyridinyl)-2-fluoro-5-methoxy-N-(methylsulfonyl)benzamide]	> 3000	55.1		
Cc1cc(Br)ccc1Oc1ncc(-c2cc(F)c(C(=O)NS(C)(=O)=O)cc2C)cc1Cl [Example 614, 4-(6-(4-bromo-2-methylphenoxy)-5-chloro-3-pyridinyl)-2-fluoro-5-methyl-N-(methylsulfonyl)benzamide]	> 3000	68		
